Source: patent publication US4314055A, “3,5-Disubstituted-2,4,6-triiodoanilides of polyhydroxy-monobasic acids” (Mallinckrodt, Inc., priority 1977, dated 1982)
Converted amounts (≈) assume the structure as drawn. Like-named read-outs stand apart in the source and are kept apart here. Values belong to the compound of their own block, whether it stands above or below them.

Assays:
water solubility = format: physicochemical
Procedure: A 15% w/v solution was prepared, seeded and stirred at room temperature.

Swiss Albino mice [1] = test: Acute Intravenous Toxicity Studies in Mice; format: in vivo, mouse (Swiss Albino, Charles River)
Procedure: (§1) Toxicity evaluations in accordance with three different techniques were carried out on aqueous solutions of the compounds of Examples I, II, IV, V, VI, VIII, IX, X, XI and XII. The techniques utilized are described below.
1. Acute Intravenous Toxicity Studies in Mice
Except as noted below, Swiss Albino mice (Charles River) were dosed in the lateral tail vein with solutions of the above-noted iodinated compounds having an iodine concentration of 28.2% with a pH of 7.0-7.2. The solutions were injected at the rate of approximately 1 ml./min. In the case of the compound of Examples I, II and VI, supersaturated solutions having an iodine concentration of 10%, 28% and 28%, respectively, were employed. […] The LD50 values were calculated by the method of Litchfield and Wilcoxon (J. of Pharmac. and Exptl. Therap. 96:99-113, 1949).

Swiss Albino mice [2] = test: Intracerebral Toxicity in Mice; format: in vivo, mouse (Swiss Albino, Charles River)
Procedure: as §1
2. Intracerebral Toxicity in Mice
Swiss Albino mice (Charles River) were used. Fixed volumes of aqueous solutions of the iodinated compounds were injected intracerebrally via a 27-gauge needle (1/4 inch in length) according to the method of Haley et al. (Br. J. of Pharmac. 12:12-15, 1957). Again in the case of the compounds of Examples I, II and VI, supersaturated solutions were employed. In the case of the compound of Examples VIII and IX, solutions having an iodine concentration of 35% and 42%, respectively, were employed and in the case of the compound of Example X, a solution having an iodine concentration of 40% was employed. The animals were observed immediately following injections and daily throughout a seven day observation period. The LD50 values were calculated by the method of Litchfield and Wilcoxon (J. of Pharmac. and Exptl. Therap. 96:99-113, 1949).

[3] = test system: Sprague-Dawley (Carworth) rats; test: Intracisternal Toxicity in Rats; format: in vivo, rat (Sprague-Dawley; settings: two day observation
Procedure: as §1
3. Intracisternal Toxicity in Rats
Sprague-Dawley (Carworth) rats were used. The method used was a variation of the procedure outlined by Melartin et al. (Invest. Rad. 5:13-21, 1970). In the case of the compound of Examples VIII and IX, solutions having an iodine concentration of 35% and 40%, respectively, were employed and in the case of the compound of Example X, a solution having an iodine concentration of 40% was employed. After dosing, the animals were housed individually and observed for immediate reactions and periodically for a two day observation period. The LD50 values were calculated according to the method of Litchfield and Wilcoxon (J. of Pharmac. and Exptl. Therap. 96:99-115, 1949).

dog [4] = test: tested as a bronchographic agent in a dog; format: in vivo
Procedure: (§2) The compound of Example I was tested as a bronchographic agent in a dog with good results. The compound of Example II was employed in intravenous pyelographic studies carried out in dogs. At a dosage of 250 mg. […] At a dosage of 350 mg. […] At a dosage of 350 mg. […] At a dosage of 190 mg. […] The compound of Examples VIII and IX was employed in intrathecal myelographic studies carried out in dogs. At dosages of 282 to 2400 mg. […] The compound of Examples VIII and IX was employed in intracisternal toxicity studies carried out in dogs using the cisterna magna as the route of administration. At a dosage of 1410 mg. […] The compound of Example X was employed in intravenous pyelographic studies carried out in rats. At a dosage of 500 mg. […] At a dosage of 70 mg. […] In a separate study, the compound of Examples XI and XII was administered to dogs by intraspinal administration at a dosage of 70 mg. I/kg.

dogs [5] = test: intravenous pyelographic studies in dogs; format: in vivo, dog; settings: 250 mg. I/kg.
Procedure: as §2

dog [6] = test: urinary tract visualization after injection into a dog; format: in vivo
Procedure: as §2

rats = test: intravenous pyelographic studies in rats; format: in vivo, rat; settings: 500 mg. I/kg.
Procedure: as §2

dogs [7] = test: intrathecal myelographic studies in dogs; format: in vivo, dog
Procedure: as §2

dogs [8] = test: intracisternal toxicity studies in dogs (cisterna magna route); format: in vivo, dog; settings: 1410 mg. I/kg.
Procedure: as §2

dogs [9] = test: radiographs after intraspinal administration to dogs; format: in vivo, dog; settings: 70 mg. I/kg.
Procedure: as §2

[10] = water, read-out: water solubility
[11] = supersaturated solution, seven day observation
[12] = supersaturated solution, iodine concentration 28%
[13] = iodine concentration 28.2%, pH 7.0-7.2, approx. 1 ml./min., seven-day observation
[14] = fixed volumes of aqueous solutions, seven day observation
[15] = water, initially, read-out: solubility, initial

Compound: CNC(=O)c1c(I)c(NC(=O)[C@H](O)[C@@H](O)[C@H](O)[C@H](O)CO)c(I)c(C(=O)NC)c1I [Example I, 5-D-Gluconamido-2,4,6-triiodo-N,N'-dimethylisophthalamide]
- solubility (water solubility; [10]): 12 mg/mL (≈ 15.7 mM)
- LD50 Value I.V. (Mice) (Swiss Albino mice [1]; supersaturated solution, iodine concentration 10%): > 10,000 mg. I/kg. body wt.
- LD50 Value Intracerebral (Mice) (Swiss Albino mice [2]; [11]): > 750 mg. I/kg. body wt.
- LD50 Value Intracisternal (Rats) [3]: > 150 mg. I/kg. body wt.
- bronchographic agent test result (dog [4]): good results

Compound: CNC(=O)c1c(I)c(NC(=O)[C@H](O)[C@@H](O)[C@H](O)[C@H](O)CO)c(I)c(C(=O)N(C)C)c1I [Example II, 5-D-Gluconamido-2,4,6-triiodo-N,N,N'-trimethylisophthalamide]
- solubility (water solubility; [10]): 284 mg/mL (≈ 365 mM)
- LD50 Value I.V. (Mice) (Swiss Albino mice [1]; [12]): 8,085 mg. I/kg. body wt.
- LD50 Value Intracerebral (Mice) (Swiss Albino mice [2]; [11]): 2,350 mg. I/kg. body wt.
- LD50 Value Intracisternal (Rats) [3]: 100 mg. I/kg. body wt.
- ureters and urinary bladder visualization (dogs [5]; five minutes after injection): the ureters and urinary bladder were visible
- kidney visualization (dogs [5]; one minute after injection): kidney shadows were observed

Compound: CNC(=O)c1c(I)c(NC(=O)[C@H](O)[C@@H](O)[C@H](O)[C@H](O)CO)c(I)c(N(C)C(C)=O)c1I [Example IV, 3-D-Gluconamido-2,4,6-triiodo-N-methyl-5-(N-methylacetamido)-benzamide]
- solubility (water solubility; [10]): ≥ 1000 mg/mL
- LD50 Value I.V. (Mice) (Swiss Albino mice [1]; [13]): 6,400 mg. I/kg. body wt.
- LD50 Value Intracerebral (Mice) (Swiss Albino mice [2]; [14]): 1,175 mg. I/kg. body wt.
- LD50 Value Intracisternal (Rats) [3]: 75 mg. I/kg. body wt.
- urinary bladder visualization (dog [6]; 350 mg. I/kd. (so in the source), 40 minutes after injection): gave a shadow of the urinary bladder

Compound: CNC(=O)c1c(I)c(C(=O)N(C)C)c(I)c(N(C)C(=O)[C@@H](O)[C@H](O)[C@H](O)[C@@H](O)C=O)c1I [Example V, 2,4,6-triiodo-N,N,N'-trimethyl-5-(N-methyl-D-galacturonamido)-isophthalamide]
- solubility (water solubility; [10]): ≥ 1000 mg/mL
- LD50 Value I.V. (Mice) (Swiss Albino mice [1]; [13]): 1,700 mg. I/kg. body wt.
- LD50 Value Intracerebral (Mice) (Swiss Albino mice [2]; [14]): 1,700 mg. I/kg. body wt.
- LD50 Value Intracisternal (Rats) [3]: 28 mg. I/kg. body wt.
- kidney and ureter visualization (dog [6]; 350 mg. I/kg., 5 minutes after injection): gave a kidney shadow with partial visualization of the ureters

Compound: CNC(=O)c1c(I)c(NC(C)=O)c(I)c(NC(=O)[C@H](O)[C@@H](O)[C@H](O)[C@H](O)CO)c1I [Example VI, 3-acetamido-5-D-gluconamido-2,4,6-triiodo-N-methylbenzamide]
- solubility (water solubility; [10]): 86 mg/mL (≈ 113 mM)
- LD50 Value I.V. (Mice) (Swiss Albino mice [1]; [12]): 11,000 mg. I/kg. body wt.
- LD50 Value Intracerebral (Mice) (Swiss Albino mice [2]; [11]): ~ 2,000 mg. I/kg. body wt.
- LD50 Value Intracisternal (Rats) [3]: 180 mg. I/kg. body wt.
- kidney and ureter visualization (dog [6]; 190 mg. I/kg., one minute after injection): gave a kidney shadow with partial visualization of the ureters

- solubility (water solubility; [10]): 18.6 mg/mL (≈ 25.3 mM)
Compound: CNC(=O)c1c(I)c(CO)c(I)c(NC(=O)[C@H](O)[C@@H](O)[C@H](O)[C@H](O)CO)c1I [Example VII, 3-D-gluconamido-5-hydroxymethyl-2,4,6-triiodo-N-methylbenzamide]

Compound: CNC(=O)c1c(I)c(NC(=O)C(=O)[C@@H](O)[C@H](O)[C@@H](O)CO)c(I)c(N(CCO)C(C)=O)c1I [Example X, 3-[N-(2-hydroxyethyl)acetamido]-2,4,6-triiodo-5-(2-keto-L-gulonamido)-N-methylbenzamide]
- solubility on standing (water solubility; after standing several days, analytical sample): a precipitate formed after standing several days
- solubility, initial (water solubility; initially): 100 % (w/v)
- solubility at 504 h (water solubility; water, after 21 days): 640 mg/mL (≈ 795 mM)
- solubility (water solubility; [15]): 1000 mg/mL (≈ 1240 mM)
- LD50 Value I.V. (Mice) (Swiss Albino mice [1]; [13]): ~ 10,500 mg. I/kg. body wt.
- LD50 Value Intracerebral (Mice) (Swiss Albino mice [2]; Iodine Conc. 40%): 2,500 mg. I/kg. body wt.
- LD50 Value Intracisternal (Rats) ([3]; Iodine Conc. 40%): 405 mg. I/kg. body wt.
- urinary bladder contrast (rats; 10 and 15 minutes after dosing): showed good contrast
- collecting pelvis of the right kidney filling (rats; 10 minutes): showed good filling
- kidney and ureter visualization (rats; five minutes after injection): faint kidney and portions of ureters were observed

Compound: CNC(=O)c1c(I)c(NC(=O)[C@H](O)[C@@H](O)[C@H](O)[C@H](O)CO)c(I)c(N(CCO)C(C)=O)c1I [Examples VIII and IX, 3-gluconamido-5-[N-(2-hydroxyethyl)acetamido]-2,4,6-triiodo-N-methylbenzamide]
- solubility (water solubility; water, printed as slightly less than, read-out: aqueous solubility): < 1000 mg/mL
- LD50 Value I.V. (Mice) (Swiss Albino mice [1]; Iodine Conc. 40%): 14,500 mg. I/kg. body wt.
- LD50 Value I.V. (Mice) (Swiss Albino mice [1]; [13]): > 13,000 mg. I/kg. body wt.
- LD50 Value Intracerebral (Mice) (Swiss Albino mice [2]; Iodine Conc. 35%): > 2,679 mg. I/kg. body wt.
- LD50 Value Intracerebral (Mice) (Swiss Albino mice [2]; Iodine Conc. 42%): 2,200 mg. I/kg. body wt.
- LD50 Value Intracisternal (Rats) ([3]; Iodine Conc. 35%): > 505 mg. I/kg. body wt.
- LD50 Value Intracisternal (Rats) ([3]; Iodine Conc. 40%): 590 mg. I/kg. body wt.
- filling of subarachnoid space (dogs [7]; intrathecal, 282 to 2400 mg. I/kg., extent depending on volume injected and size of animal): good filling of the subarachnoid space from the cul-de-sac to the thoracic, cervical and cisterna magna
- subarachnoid space filling (dogs [8]): partial filling of the cerebral subarachnoid space and good cervical and thoracic subarachnoid space filling

Compound: CNC(=O)c1c(I)c(NC(=O)[C@H](O)[C@@H](O)[C@H](O)[C@H](O)CO)c(I)c(NC(=O)[C@H](O)[C@@H](O)[C@H](O)[C@H](O)CO)c1I [Examples XI and XII, 3,5-bis-D-gluconamido-2,4,6-triiodo-N-methylbenzamide]
- turbidity of solution (water solubility; 15% w/v solution, seeded and stirred at room temperature): turbidity developed within two hours
- solubility thermodynamic (water solubility; water, 15% w/v solution seeded, stirred at room temperature, filtered, filtrate aliquot evaporated to constant weight at 85° C.): 120 mg/mL (≈ 133 mM)
- solubility at 24 h (water solubility; water, after 24 hr., read-out: aqueous solubility after 24 hr.): < 150 mg/mL
- solubility (water solubility; [15]): 1000 mg/mL (≈ 1110 mM)
- LD50 Value I.V. (Mice) (Swiss Albino mice [1]; [13]): 20,500 mg. I/kg. body wt.
- LD50 Value Intracerebral (Mice) (Swiss Albino mice [2]; [14]): 1,330 mg. I/kg. body wt.
- LD50 Value Intracisternal (Rats) [3]: > 560 mg. I/kg. body wt.
- radiographs, filling (dogs [7]; intrathecal injection, 70 mg. I/kg.): fair filling with some degree of scalloping
- radiographs, definition of lumbar and sacral spinal spaces (dogs [9]): the lumbar and sacral spinal spaces were well defined

- solubility (water solubility; [10]): 37.5 mg/mL (≈ 48.4 mM)
Compound: CNC(=O)c1c(I)c(NC(=O)C(=O)[C@@H](O)[C@H](O)[C@@H](O)CO)c(I)c(C(=O)N(C)C)c1I [III, 2,4,6-Triiodo-5-(2-keto-L-gulonamido)-N,N,N'-trimethylisophthalamide]
